# Source: article PMC7156458, “Synthetic biology based construction of biological activity-related library of fungal decalin-containing diterpenoid pyrones” (Nature Communications, 2020)
# Target: Aβ42 (Homo sapiens, UniProt P05067)
# Test: Th-T (thioflavin-T) assay of Aβ42 aggregation
# Format: biochemical
# Sequence of Aβ42 (P05067 672-713): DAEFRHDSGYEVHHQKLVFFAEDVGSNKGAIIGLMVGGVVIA
smiles,measurement,setting,value
C=C1CCC2C(C)(CCC=C(C)C)C(O)CCC2(C)C1Cc1c(OC)oc(CO)c(C)c1=O (stereo not drawn) [Compound 12],"Fig. 7a Th-T reading, mean of three wells","column suffix _20, reading M101",2.081
same,"Fig. 7a Th-T reading, mean of three wells","column suffix _20, reading M102",2.083
same,"Fig. 7a Th-T reading, mean of three wells","column suffix _20, reading M103",2.082
same,"Fig. 7a Th-T reading, mean of three wells","column suffix _20, reading M104",2.11
same,"Fig. 7a Th-T reading, mean of three wells","column suffix _20, reading M105",2.097
same,"Fig. 7a Th-T reading, mean of three wells","column suffix _20, reading M106",2.107
same,"Th-T fluorescence, mean of three wells (Fig. 7a)","column suffix _50, measurement M19",1.719
same,"Th-T fluorescence, mean of three wells (Fig. 7a)","column suffix _50, measurement M20",1.709
same,"Th-T fluorescence, mean of three wells (Fig. 7a)","column suffix _50, measurement M21",1.707
same,"Th-T fluorescence, mean of three wells (Fig. 7a)","column suffix _50, measurement M22",1.694
same,"Th-T fluorescence, mean of three wells (Fig. 7a)","column suffix _50, measurement M23",1.672
same,"Th-T fluorescence, mean of three wells (Fig. 7a)","column suffix _50, measurement M24",1.656
same,"Th-T fluorescence, mean of three wells (Fig. 7a)","column suffix _50, measurement M25",1.634
same,"Th-T fluorescence, mean of three wells (Fig. 7a)","column suffix _50, measurement M26",1.64
same,"Th-T fluorescence, mean of three wells (Fig. 7a)","column suffix _50, measurement M27",1.6183
same,"Th-T fluorescence, mean of three wells (Fig. 7a)","column suffix _50, measurement M28",1.623
same,"Th-T fluorescence, mean of three wells (Fig. 7a)","column suffix _50, measurement M29",1.606
same,"Th-T assay signal, mean of three wells (Fig. 7a)","column suffix _50, reading M1",1.526
same,"Th-T assay signal, mean of three wells (Fig. 7a)","column suffix _50, reading M2",1.765
same,"Th-T assay signal, mean of three wells (Fig. 7a)","column suffix _50, reading M3",2.409
same,"Th-T assay signal, mean of three wells (Fig. 7a)","column suffix _50, reading M4",2.663
same,"Th-T assay signal, mean of three wells (Fig. 7a)","column suffix _50, reading M5",2.734
same,"Th-T assay signal, mean of three wells (Fig. 7a)","column suffix _50, reading M6",2.555
same,"Th-T assay signal, mean of three wells (Fig. 7a)","column suffix _50, reading M7",2.454
same,"Th-T assay signal, mean of three wells (Fig. 7a)","column suffix _50, reading M8",2.181
same,"Th-T assay signal, mean of three wells (Fig. 7a)","column suffix _50, reading M9",2.034
same,"Th-T assay signal, mean of three wells (Fig. 7a)","column suffix _50, reading M10",1.99
same,"Th-T assay signal, mean of three wells (Fig. 7a)","column suffix _50, reading M11",1.977
same,"Th-T assay signal, mean of three wells (Fig. 7a)","column suffix _50, reading M12",1.8801
same,"Th-T assay signal, mean of three wells (Fig. 7a)","column suffix _50, reading M13",1.841
same,"Th-T assay signal, mean of three wells (Fig. 7a)","column suffix _50, reading M14",1.819
same,"Th-T assay signal, mean of three wells (Fig. 7a)","column suffix _50, reading M15",1.788
same,"Th-T assay signal, mean of three wells (Fig. 7a)","column suffix _50, reading M16",1.774
same,"Th-T assay signal, mean of three wells (Fig. 7a)","column suffix _50, reading M17",1.76
same,"Th-T assay signal, mean of three wells (Fig. 7a)","column suffix _50, reading M18",1.746
same,"Fig. 7a Th-T reading, mean of three wells","column suffix _50, reading M85",1.4
same,"Fig. 7a Th-T reading, mean of three wells","column suffix _50, reading M86",1.399
same,"Fig. 7a Th-T reading, mean of three wells","column suffix _50, reading M87",1.399
same,"Fig. 7a Th-T reading, mean of three wells","column suffix _50, reading M88",1.392
same,"Fig. 7a Th-T reading, mean of three wells","column suffix _50, reading M89",1.396
same,"Fig. 7a Th-T reading, mean of three wells","column suffix _50, reading M90",1.401
same,"Fig. 7a Th-T reading, mean of three wells","column suffix _50, reading M91",1.4
same,"Fig. 7a Th-T reading, mean of three wells","column suffix _50, reading M92",1.405
same,"Fig. 7a Th-T reading, mean of three wells","column suffix _50, reading M93",1.424
same,"Fig. 7a Th-T reading, mean of three wells","column suffix _50, reading M94",1.4149
same,"Fig. 7a Th-T reading, mean of three wells","column suffix _50, reading M95",1.419
same,"Fig. 7a Th-T reading, mean of three wells","column suffix _50, reading M96",1.4015
same,"Fig. 7a Th-T reading, mean of three wells","column suffix _50, reading M97",1.401
same,"Fig. 7a Th-T reading, mean of three wells","column suffix _50, reading M98",1.397
same,"Fig. 7a Th-T reading, mean of three wells","column suffix _50, reading M99",1.397
same,"Fig. 7a Th-T reading, mean of three wells","column suffix _50, reading M100",1.41
same,"Fig. 7a Th-T reading, mean of three wells","column suffix _50, reading M101",1.399
same,"Fig. 7a Th-T reading, mean of three wells","column suffix _50, reading M102",1.3937
same,"Fig. 7a Th-T reading, mean of three wells","column suffix _50, reading M103",1.417
same,"Fig. 7a Th-T reading, mean of three wells","column suffix _50, reading M104",1.419
same,"Fig. 7a Th-T reading, mean of three wells","column suffix _50, reading M105",1.42
same,"Fig. 7a Th-T reading, mean of three wells","column suffix _50, reading M106",1.412
same,"Th-T fluorescence, mean of three wells","compound at 10, reading M41 of time course",3.264
same,"Th-T fluorescence, mean of three wells","compound at 10, reading M42 of time course",3.266
same,"Th-T fluorescence, mean of three wells","compound at 10, reading M43 of time course",3.271
same,"Th-T fluorescence, mean of three wells","compound at 10, reading M44 of time course",3.34
same,"Th-T fluorescence, mean of three wells","compound at 10, reading M45 of time course",3.373
same,"Th-T fluorescence, mean of three wells","compound at 10, reading M46 of time course",3.378
same,"Th-T fluorescence, mean of three wells","compound at 10, reading M47 of time course",3.37
same,"Th-T fluorescence, mean of three wells","compound at 10, reading M48 of time course",3.386
same,"Th-T fluorescence, mean of three wells","compound at 10, reading M49 of time course",3.382
same,"Th-T fluorescence, mean of three wells","compound at 10, reading M50 of time course",3.418
same,"Th-T fluorescence, mean of three wells","compound at 10, reading M51 of time course",3.408
same,"Th-T fluorescence, mean of three wells","compound at 10, reading M52 of time course",3.423
same,"Th-T fluorescence, mean of three wells","compound at 10, reading M53 of time course",3.4353
same,"Th-T fluorescence, mean of three wells","compound at 10, reading M54 of time course",3.443
same,"Th-T fluorescence, mean of three wells","compound at 10, reading M55 of time course",3.439
same,"Th-T fluorescence, mean of three wells","compound at 10, reading M56 of time course",3.46
same,"Th-T fluorescence, mean of three wells","compound at 10, reading M57 of time course",3.454
same,"Th-T fluorescence, mean of three wells","compound at 10, reading M58 of time course",3.457
same,"Th-T fluorescence, mean of three wells","compound at 10, reading M59 of time course",3.451
same,"Th-T fluorescence, mean of three wells","compound at 10, reading M60 of time course",3.452
same,"Th-T fluorescence, mean of three wells","compound at 10, reading M61 of time course",3.431
same,"Th-T fluorescence, mean of three wells","compound at 10, reading M62 of time course",3.428
same,"Th-T fluorescence, mean of three wells","compound at 20, reading M41 of time course",2.229
same,"Th-T fluorescence, mean of three wells","compound at 20, reading M42 of time course",2.216
same,"Th-T fluorescence, mean of three wells","compound at 20, reading M43 of time course",2.22
same,"Th-T fluorescence, mean of three wells","compound at 20, reading M44 of time course",2.199
same,"Th-T fluorescence, mean of three wells","compound at 20, reading M45 of time course",2.1759
same,"Th-T fluorescence, mean of three wells","compound at 20, reading M46 of time course",2.17
same,"Th-T fluorescence, mean of three wells","compound at 20, reading M47 of time course",2.178
same,"Th-T fluorescence, mean of three wells","compound at 20, reading M48 of time course",2.1654
same,"Th-T fluorescence, mean of three wells","compound at 20, reading M49 of time course",2.1539
same,"Th-T fluorescence, mean of three wells","compound at 20, reading M50 of time course",2.1392
same,"Th-T fluorescence, mean of three wells","compound at 20, reading M51 of time course",2.1473
same,"Th-T fluorescence, mean of three wells","compound at 20, reading M52 of time course",2.131
same,"Th-T fluorescence, mean of three wells","compound at 20, reading M53 of time course",2.116
same,"Th-T fluorescence, mean of three wells","compound at 20, reading M54 of time course",2.151
same,"Th-T fluorescence, mean of three wells","compound at 20, reading M55 of time course",2.154
same,"Th-T fluorescence, mean of three wells","compound at 20, reading M56 of time course",2.133
same,"Th-T fluorescence, mean of three wells","compound at 20, reading M57 of time course",2.135
same,"Th-T fluorescence, mean of three wells","compound at 20, reading M58 of time course",2.143
same,"Th-T fluorescence, mean of three wells","compound at 20, reading M59 of time course",2.117
same,"Th-T fluorescence, mean of three wells","compound at 20, reading M60 of time course",2.117
same,"Th-T fluorescence, mean of three wells","compound at 20, reading M61 of time course",2.0819
same,"Th-T fluorescence, mean of three wells","compound at 20, reading M62 of time course",2.098
same,"Th-T fluorescence, mean of three wells","compound at 50, reading M41 of time course",1.5174
same,"Th-T fluorescence, mean of three wells","compound at 50, reading M42 of time course",1.513
same,"Th-T fluorescence, mean of three wells","compound at 50, reading M43 of time course",1.502
same,"Th-T fluorescence, mean of three wells","compound at 50, reading M44 of time course",1.5
same,"Th-T fluorescence, mean of three wells","compound at 50, reading M45 of time course",1.494
same,"Th-T fluorescence, mean of three wells","compound at 50, reading M46 of time course",1.488
same,"Th-T fluorescence, mean of three wells","compound at 50, reading M47 of time course",1.489
same,"Th-T fluorescence, mean of three wells","compound at 50, reading M48 of time course",1.494
same,"Th-T fluorescence, mean of three wells","compound at 50, reading M49 of time course",1.481
same,"Th-T fluorescence, mean of three wells","compound at 50, reading M50 of time course",1.475
same,"Th-T fluorescence, mean of three wells","compound at 50, reading M51 of time course",1.492
same,"Th-T fluorescence, mean of three wells","compound at 50, reading M52 of time course",1.492
same,"Th-T fluorescence, mean of three wells","compound at 50, reading M53 of time course",1.469
